Legend:
mice gut = test: Oral administration of ethanolamine in mice; type: in vivo
Excerpt: (§1) RNA isolation and gene expression analyses.
(§2) miRNA profiling and expression analyses.

enteroids = test: Ethanolamine treatment of enteroids, expression analyses; type: cell-based, mouse
Procedure: Enteroids development and treatments. To develop mouse enteroids, entire small intestine was collected from mice and flushed with pre-cooled Dulbecco's phosphate buffered saline (DPBS). The lengthwise cut-opened ileum was washed with cooled PBS and fragmented into 2 mm small pieces, then transferred to a 50-ml conical flask containing cleaned pre-cooled PBS. Tissue fragments were incubated in the 25 ml of pre-warmed Trypsin (Gibco) on a rocking platform for 15 minutes. After removing the trypsin, tissue pieces were washed with 10 ml pre-cold PBS with 0.1% bovine serum albumin and filtered in a 50 ml conical tube through a 70 μm cell strainer (Falcon). These pieces were then centrifuged at 290×g for 5 min at 4° C., and the intestinal crypt-containing pallets were suspended in the 10 mL cold DMEM: F-12 (Gibco) and centrifuged at 500×g for 10 minutes followed by resuspending in 150 μL IntestiCult Organoid Growth Medium (StemCell) with […] gentamicin (Gibco). The Matrigel Matrix (Corning) was added to the suspension and the mixture of 50 μL was used to form a dome at the center of a prewarmed 24-well culture plate and incubated at 37° C. and 5% CO2 for 30 minutes to allow the Matrigel to set. To maintain the cultures, the IntestiCult Organoid Growth Medium was changed three times/week, and images were captured by from day 1 to 12. […] The organoids were harvested after 2 days of treatment(s) for miRNA, mRNA, and protein analyses. Experiments were repeated three times.
as §1, §2

Caco2 cells = test: Ethanolamine treatment of Caco2 cells, expression analyses; type: cell-based, Human
Excerpt: as §1, §2

Caco-2 cell monolayers = test: Transepithelial electric resistance (TEER) assay in Caco-2 cell monolayers; type: cell-based, Human; details: ethanolamine treatment, up to 8 hrs
Procedure: Transepithelial electric resistance (TEER) assay in Caco-2 cell monolayers. Human intestinal epithelial Caco-2 cells (American Type Culture Collection) were seeded on apical chamber made of polyester membrane filters with 0.4 μm pore size of 12-well transwell plates (Costar) at a density of 3×10^5/well. The culture medium from both apical and basolateral compartment were changed every two days. The cells were allowed to fully differentiate for 21 days; and fully differentiated cells were challenged with FCM and metabolites for next 8 hours with continuous measuring of TEER values, using an EVOM2 Epithelial Voltometer (WPI) according to the manufacturer's instruction. The blank inert resistance value (the insert with only culture media) was subtracted from the measured resistance value of each sample and final resistance in ohm×cm2 was calculated by multiplying the sample resistance by the area of the membrane.

miR101a-3p promoter = test: Promoter luciferase assay in Caco-2 cells; type: cell-based, Human
Procedure: Promoter luciferase assay. Caco-2 cells were seeded onto a 96-well plate at a density of 2×10^4 cells/well and transfected with miR101a-3p promoter pMK-RQ (KanR) reporter vector of 4 different nucleotide sequence (−1 to −500, −1 to −1000, −1 to −1500 and −1 to −2000) from its TSS (Transcription start site) and pMK-RQ (control vector using Lipofectamine 3000 transfection kit (Invitrogen). The TSS of miR101a-3p is located at position: chr1 65067704 (genome version hg38) as reported earlier. (Huang et al., 2017). The cells were collected at various time point (0, 1, 3, 5, 7 and 10 hrs) after transfection. The expression level of the firefly luciferase reporter gene was measured using Pierce Firefly Luciferase Glow Assay Kit.

[1] = oral, 100 mg/kg body weight, one dose, vs non-treated controls
[2] = among top 6 selected metabolites

NCCO [ethanolamine]
expression of miR101a-3p in the colon of mice (mice gut; ethanolamine treatment): significantly increased
expression of miR101a-3p in the ileum of mice (mice gut; ethanolamine treatment): significantly increased
expression of inflammatory markers (IL-1 β, IL-6 and TNF α) in the intestine (ileum) (mice gut; ethanolamine treatment in mice vs controls): significantly increased
expression (Arid3a) in mouse intestine (mice gut; ethanolamine treatment vs controls, FIG. 5N): significantly increased
leaky gut (FITC-dextran assay) (mice gut; oral, 100 mg/kg body weight, one dose, mice): significantly increased
expression of (Tjp1) mRNA in the colon (mice gut; [1]): significantly reduced
expression of (Tjp1) mRNA in the ileum (mice gut; [1]): significantly reduced
expression of (Tjp1) protein in the ileum (mice gut; [1]): significantly reduced
expression of Tjp1 mRNA in the enteroids (enteroids; [2]): most dramatically reduced
expression of Arid3a in the enteroids (enteroids; ethanolamine treatment): significantly increased
expression of miR101a-3p in enteroids (enteroids; ethanolamine treatment): significantly increased
expression of inflammatory markers like IL-1, IL-6, and TNF-α (Caco2 cells; FIG. 12C, Caco2 culture experiments): significantly reduced
expression of Tjp1 mRNA in the Caco2 cells (Caco2 cells; [2]): most dramatically reduced
expression of miR101a-3p in Caco2 cells (Caco2 cells; ethanolamine treatment): significantly increased
expression (Arid3a) in Caco2 cells (Caco2 cells; ethanolamine treatment vs controls, FIG. 5M): significantly increased
TEER in the monolayers of Caco2 cells (Caco-2 cell monolayers): reduced
miR101a-3p promoter activity (miR101a-3p promoter; vector carrying −1 to 500 bp fragment): no change
miR101a-3p promoter activity (miR101a-3p promoter; vector carrying −1 to 1500 bp fragment): significantly increased
miR101a-3p promoter activity (miR101a-3p promoter; vector carrying −1 to −1000 bp fragment): significantly increased
miR101a-3p promoter luciferase activity (miR101a-3p promoter; vector with −1 to −2000 bp of TSS vs empty vector): increased

From patent US12414972B2 (University of South Florida, priority 2021, dated 2025)
